Where two headings read alike, the source gives them in different places.
Experiments:
[1] = system: Citrobacter koseri (CKR) isolates; assay: MIC of compounds alone and combined with antibacterials, broth microdilution (CLSI); type: cell-based; settings: for MIC: Citrobacter koseri, read-out: MIC
Procedure, shortened: (§1)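 Log-phase bacteria at a final 5·10^5 CFU/mL in cation-adjusted Mueller-Hinton broth were incubated 16-20 h at 35° C in ambient air with compound alone or with an antibacterial. MIC was the lowest concentration preventing visible growth; combination MIC of the antibacterial was read at each compound concentration.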

[2] = system: Enterobacter cloacae (ECL) isolates; assay: as above; type: cell-based; settings: for MIC: Enterobacter cloacae
Procedure, shortened: as §1

## C=CC1=C(C(=O)O)N2C(=O)[C@@H](NC(=O)/C(=N\OCC(=O)O)c3csc(N)n3)[C@H]2SC1 [FIX, Cefixime]
[1]; CKO ROU, AF1 @ 4 μg/mL
  MIC ATB in combination: <=0.25 μg/mL
[1]; CKO ROU, AF1 @ 8 μg/mL
  MIC ATB in combination: <=0.25 μg/mL
[1]; CKO UFR149, AF1 @ 4 μg/mL
  MIC ATB in combination: 0.5 µg/mL
[1]; CKO UFR149, AF1 @ 8 μg/mL
  MIC ATB in combination: <=0.25 μg/mL
[1]; CKO UFR150, AF1 @ 4 μg/mL
  MIC ATB in combination: 2 µg/mL
[1]; CKO UFR150, AF1 @ 8 μg/mL
  MIC ATB in combination: 1 µg/mL
[1]; strain CKO ROU (TEM-1, SHV-12, CTX-M-15, OXA-1, OXA-48), ATB alone
  MIC: 1 µg/mL
[1]; strain CKO ROU (TEM-1, SHV-12, CTX-M-15, OXA-1, OXA-48), CLA @ 4 μg/ml+ ATB
  MIC: 2 µg/mL
[1]; strain CKO UFR149 (OXA-48), ATB alone
  MIC: 0.5 µg/mL
[1]; strain CKO UFR149 (OXA-48), CLA @ 4 μg/ml+ ATB
  MIC: 1 µg/mL
[1]; strain CKO UFR150 (TEM-1, OXA-48), ATB alone
  MIC: 2 µg/mL
[1]; strain CKO UFR150 (TEM-1, OXA-48), CLA @ 4 μg/ml+ ATB
  MIC: 2 µg/mL
[2]; ECL 2185D, AF1 @ 4 μg/mL
  MIC ATB in combination: >128 µg/mL
[2]; ECL 2185D, AF1 @ 8 μg/mL
  MIC ATB in combination: 64 µg/mL
[2]; ECL 190310, AF1 @ 4 μg/mL
  MIC ATB in combination: 64 µg/mL
[2]; ECL 190310, AF1 @ 8 μg/mL
  MIC ATB in combination: 32 µg/mL
[2]; ECL 190408, AF1 @ 4 μg/mL
  MIC ATB in combination: 0.5 µg/mL
[2]; ECL 190408, AF1 @ 8 μg/mL
  MIC ATB in combination: 0.25 µg/mL
[2]; ECL 200138, AF1 @ 4 μg/mL
  MIC ATB in combination: 64 µg/mL
[2]; ECL 200138, AF1 @ 8 μg/mL
  MIC ATB in combination: 16 µg/mL
[2]; ECL 200322, AF1 @ 4 μg/mL
  MIC ATB in combination: 0.5 µg/mL
[2]; ECL 200322, AF1 @ 8 μg/mL
  MIC ATB in combination: 0.25 µg/mL
[2]; ECL 260033, AF1 @ 4 μg/mL
  MIC ATB in combination: >128 µg/mL
[2]; ECL 260033, AF1 @ 8 μg/mL
  MIC ATB in combination: 2 µg/mL
[2]; ECL 260253, AF1 @ 4 μg/mL
  MIC ATB in combination: 8 µg/mL
[2]; ECL 260253, AF1 @ 8 μg/mL
  MIC ATB in combination: 8 µg/mL
[2]; ECL 260323, AF1 @ 4 μg/mL
  MIC ATB in combination: 64 µg/mL
[2]; ECL 260323, AF1 @ 8 μg/mL
  MIC ATB in combination: 32 µg/mL
[2]; ECL 260508, AF1 @ 4 μg/mL
  MIC ATB in combination: <=0.25 μg/mL
[2]; ECL 260508, AF1 @ 8 μg/mL
  MIC ATB in combination: <=0.25 μg/mL
[2]; ECL NEM146383, AF1 @ 4 μg/mL
  MIC ATB in combination: 32 µg/mL
[2]; ECL NEM146383, AF1 @ 8 μg/mL
  MIC ATB in combination: 16 µg/mL
[2]; ECL P99, AF1 @ 4 μg/mL
  MIC ATB in combination: 16 µg/mL
[2]; ECL P99, AF1 @ 8 μg/mL
  MIC ATB in combination: 1 µg/mL
[2]; ECL UFR12, AF1 @ 4 μg/mL
  MIC ATB in combination: <=0.25 μg/mL
[2]; ECL UFR12, AF1 @ 8 μg/mL
  MIC ATB in combination: <=0.25 μg/mL
[2]; ECL UFR13, AF1 @ 4 μg/mL
  MIC ATB in combination: 8 µg/mL
[2]; ECL UFR13, AF1 @ 8 μg/mL
  MIC ATB in combination: 8 µg/mL
[2]; ECL UFR14, AF1 @ 4 μg/mL
  MIC ATB in combination: 16 µg/mL
[2]; ECL UFR14, AF1 @ 8 μg/mL
  MIC ATB in combination: 8 µg/mL
[2]; ECL UFR60, AF1 @ 4 μg/mL
  MIC ATB in combination: 4 µg/mL
[2]; ECL UFR60, AF1 @ 8 μg/mL
  MIC ATB in combination: 4 µg/mL
[2]; ECL UFR70, AF1 @ 4 μg/mL
  MIC ATB in combination: 16 µg/mL
[2]; ECL UFR70, AF1 @ 8 μg/mL
  MIC ATB in combination: 2 µg/mL
[2]; ECL UFR84, AF1 @ 4 μg/mL
  MIC ATB in combination: 64 µg/mL
[2]; ECL UFR84, AF1 @ 8 μg/mL
  MIC ATB in combination: 16 µg/mL
[2]; ECL UFR85, AF1 @ 4 μg/mL
  MIC ATB in combination: 8 µg/mL
[2]; ECL UFR85, AF1 @ 8 μg/mL
  MIC ATB in combination: 0.5 µg/mL
[2]; ECL UFR194, AF1 @ 4 μg/mL
  MIC ATB in combination: 1 µg/mL
[2]; ECL UFR194, AF1 @ 8 μg/mL
  MIC ATB in combination: 2 µg/mL
[2]; ECL UFR200, AF1 @ 4 μg/mL
  MIC ATB in combination: 1 µg/mL
[2]; ECL UFR200, AF1 @ 8 μg/mL
  MIC ATB in combination: 0.5 µg/mL
[2]; ATB alone, strain ECL UFR197 (TEM-1, CTX-M-15, OXA-1, OXA-48)
  MIC: > 128 µg/mL
[2]; ATB alone, strain ECL UFR198 (TEM-1, SHV-12, CTX-M-15, DHA-1, OXA-1, OXA-48)
  MIC: > 128 µg/mL
[2]; ATB combined with CLA @ 4 μg/ml, strain ECL UFR197 (TEM-1, CTX-M-15, OXA-1, OXA-48), read-out: MIC
  MIC: 128 µg/mL
[2]; ATB combined with CLA @ 4 μg/ml, strain ECL UFR198 (TEM-1, SHV-12, CTX-M-15, DHA-1, OXA-1, OXA-48)
  MIC: > 128 µg/mL
[2]; strain ECL 2185D (OXA-163), ATB alone
  MIC: > 128 µg/mL
[2]; strain ECL 2185D (OXA-163), CLA @ 4 μg/ml+ ATB
  MIC: > 128 µg/mL
[2]; strain ECL 190310 (AmpC), ATB alone
  MIC: > 128 µg/mL
[2]; strain ECL 190310 (AmpC), CLA @ 4 μg/ml+ ATB
  MIC: > 128 µg/mL
[2]; strain ECL 190408 (TEM-1, CTX-M-15, OXA-1), ATB alone
  MIC: 512 µg/mL
[2]; strain ECL 190408 (TEM-1, CTX-M-15, OXA-1), CLA @ 4 μg/ml+ ATB, read-out: MIC
  MIC: 128 µg/mL
[2]; strain ECL 200138 (AmpC), ATB alone
  MIC: > 128 µg/mL
[2]; strain ECL 200138 (AmpC), CLA @ 4 μg/ml+ ATB
  MIC: > 128 µg/mL
[2]; strain ECL 200322 (TEM-1, CTX-M-15, OXA-1), ATB alone
  MIC: > 128 µg/mL
[2]; strain ECL 260033 (AmpC), ATB alone
  MIC: > 128 µg/mL
[2]; strain ECL 260033 (AmpC), CLA @ 4 μg/ml+ ATB
  MIC: > 128 µg/mL
[2]; strain ECL 260253 (TEM-1, KPC-3), ATB alone
  MIC: > 128 µg/mL
[2]; strain ECL 260253 (TEM-1, KPC-3), CLA @ 4 μg/ml+ ATB, read-out: MIC
  MIC: 64 µg/mL
[2]; strain ECL 260323 (AmpC), ATB alone
  MIC: > 128 µg/mL
[2]; strain ECL 260323 (AmpC), CLA @ 4 μg/ml+ ATB
  MIC: > 128 µg/mL
[2]; strain ECL 260508 (TEM-1, CTX-M-15), ATB alone
  MIC: > 128 µg/mL
[2]; strain ECL 260508 (TEM-1, CTX-M-15), CLA @ 4 μg/ml+ ATB
  MIC: 32 µg/mL
[2]; strain ECL NEM146383 (AmpC), ATB alone
  MIC: > 128 µg/mL
[2]; strain ECL NEM146383 (AmpC), CLA @ 4 μg/ml+ ATB
  MIC: > 128 µg/mL
[2]; strain ECL P99 (AmpC), ATB alone
  MIC: > 128 µg/mL
[2]; strain ECL P99 (AmpC), CLA @ 4 μg/ml+ ATB
  MIC: > 128 µg/mL
[2]; strain ECL UFR12 (CTX-M-9, OXA-48), ATB alone
  MIC: 16 µg/mL
[2]; strain ECL UFR12 (CTX-M-9, OXA-48), CLA @ 4 μg/ml+ ATB
  MIC: 8 µg/mL

Reference: patent publication US20200017496A1 (priority 2017, published 2020)
